Assay results: publication PMC13147323, “EGFR-Targeted and MMP-Activated Membranolytic Peptides Kill Cancer Cells Specifically In Vitro and Reduce Tumor Growth In Vivo” (Molecular Pharmaceutics, 2026)
pIC50: −log10 of the molar value. “Also recorded” adds a separate entry of the source. Structures can show the parent of a compound that is named as a salt. Residues, ends and D or L forms follow the SMILES beside them.

Key:
HB2 cells = type: cell-based, human; settings: 24 h
Experimental: (§1) MDA-MB-468, MDA-MB-231, BT-474, AU-565, HB2, and MCF-10A cells were procured from American Type Culture Collection (ATCC) and validated for lack of mycoplasma contamination (MycoAlert; Lonza, Basel, Switzerland) and identity (short tandem repeat profiling; Source Bioscience, Nottingham, UK). Cells (except MCF-10A) were cultured in Dulbecco’s modified Eagle medium (DMEM) supplemented with 10% (v/v) fetal calf serum (FCS) and 100 units/mL penicillin–streptomycin (Thermo Scientific; Waltham, MA, USA). MCF-10A was cultured in DMEM supplemented with 5% horse serum, 0.1 μg/mL cholera toxin, 0.5 μg/mL hydrocortisone, 0.02 μg/mL epidermal growth factor, and 100 units/mL penicillin–streptomycin (Thermo Scientific, Waltham, MA, USA). Cells were grown at 37 °C in a humidified incubator with 5% CO2. Cells were maintained and experiments were performed under conditions ensuring cell densities that supported exponential growth.
(§2) Cells were seeded in 96-well plates at 1 × 10^4 cells/well in complete growth media and incubated for 18 h. Cells were then treated with peptides (0–250 μM) for up to 24 h. Cells were then incubated with 0.5 mg/mL MTT dissolved in PBS for 3 h. Formazan crystals were dissolved using […] of isopropanol and absorbance was measured at 570 nm on a microplate spectrophotometer (Biotech Instruments, USA). For spheroids assays, MDA-MB-468 or HB2 cells (1000 cells/well) were seeded in 250 μL of DMEM supplemented with 10% FCS and 2.5% Matrigel (Corning, New York, USA) in low-adherent, round-bottom 96-well plates (Corning, New York, USA). The plates were centrifuged at 360g for 10 min and subsequently incubated for 48 h to allow spheroid formation. MDA-MB-468 or HB2 spheroids were then treated with peptides at the IC50 doses determined for MDA-MB-468 cells for 24 h. Cellular viability within spheroids was assessed by staining with Hoechst 33342 (5 μg/mL) for 30 min, followed by propidium iodide (PI) (1.5 μg/mL) for 10 min. Red fluorescence indicated nonviable cells stained with PI, whereas blue fluorescence represented both viable and nonviable cells stained with Hoechst 33342. The survival of spheroids was determined by calculating ratios of blue/red fluorescence using ImageJ software.
(§3) A panel of human breast epithelial cell lines was established, including two lines from a nontransformed origin (MCF-10A; HB2) and four cancer lines (BT-474; AU-565; MDA-MB-231; MDA-MB-468). Cells were treated with different doses of MP1 or the modified peptides. Survival was assessed relative to untreated using MTT assays (Figures and S2) and IC50 doses were determined for each peptide in each cell line.

MDA-MB-468 cells [1] = type: cell-based, human; settings: 24 h
Experimental: as §1, §2, §3

red blood cells = experiment: Ex vivo hemolysis assay; type: cell-based; settings: mouse RBCs 1:50 in PBS, 1 h, 37 °C, absorbance 540 nm
Experimental: Blood was collected from five 10-week-old male C57BL/6 mice via cardiac puncture following cervical dislocation, using pediatric blood collection tubes containing K3 EDTA (Greiner; Slušovice, Czechia). Blood was centrifuged (500g; 5 min; 4 °C) and plasma was removed. Red blood cells (RBCs) were resuspended to their original volume using 150 mM NaCl. RBCs were repeatedly washed and diluted to 1:50 in PBS. For a positive control, 1% (v/v) Triton X-100 was used (100% lysis), while cells incubated in PBS served as a negative control (0% lysis). 200 μL of RBCs in triplicate was treated with peptides and incubated on an orbital shaker (100 rpm; 1 h; 37 °C). Samples were centrifuged (500g; 5 min) and supernatants, containing lysed RBCs, were collected. Hemolysis was quantified by measuring absorbance at 540 nm.
Our next aim was to assess whether our various peptides had potential as anticancer therapeutics using an in vivo model. To our knowledge, MP1 or MP1-derived peptides have not previously been used experimentally in vivo, therefore we first performed an in vitro hemolysis assay to aid selection of peptides that could be suitable for intravenous delivery. Red blood cells were isolated from mouse blood and treated with three different doses of MP1 wildtype or our targeted peptides (EGFR and EGFR-MMP versions of both MP1 and D2K) and hemolysis was measured (Figure A).

BT-474 cells = type: cell-based, human; settings: 24 h
Experimental: as §1, §2, §3

AU-565 cells = type: cell-based, human; settings: 24 h
Experimental: as §1, §2, §3

MCF-10A cells = type: cell-based, human; settings: 24 h
Experimental: as §1, §2, §3

MDA-MB-231 cells = type: cell-based, human; settings: 24 h
Experimental: as §1, §2, §3

MDA-MB-468 cells [2] = experiment: MTT survival with or without MMP-2 inhibitor, MDA-MB-468; type: cell-based, human; settings: MDA-MB-468, MTT, 24 h; 20 μM EGFR-MP1, 30 μM EGFR-MMP-MP1 or 2 μM chlorhexidine dihydrochloride alone
Experimental: Cells were seeded in 6-well plates at 3 × 10^5 in complete medium and allowed to grow for 48 h. 500 μL of cell media from each cell line was collected and centrifuged at 5000 rpm for 15 min at 4 °C. Supernatants were collected and 50 μL of each was added in 3 replicate wells of a monoclonal mouse antihuman MMP-2 antibody precoated 96-well ELISA plate (Human Total MMP-2 kit; BioLegend, USA). It was then mixed with the respective assay buffers as per the kit instruction. The plate was then sealed and incubated at room temperature (2 h). The supernatant sample was then discarded and the wells were washed with assay buffer several times. Next, 100 μL of Human Total MMP-2 Detection Antibody solution was added into the wells and incubated (1 h). 100 μL of Avidin-HRP solution was then added for 1 h, and finally, after washing, 100 μL of substrate solution was added. Absorbance was measured at 450 nm (Biotech Instruments, USA). The final MMP-2 concentration was calculated against a standard curve. […]
We were also interested to test formally whether the efficacy of EGFR-MMP-MP1 was dependent on MMP-2 activity. Therefore, we treated MDA-MB-468 cells with EGFR-MMP-MP1 or with EGFR-MP1, in the presence or absence of the MMP-2 inhibitor chlorhexidine dihydrochloride, and assessed cell survival relative to untreated (Figure C,D).

SMILES	pIC50 (HB2 cells)	pIC50 (MDA-MB-468 cells [1])	hemolysis (red blood cells; 50 μM peptide, 1% Triton X-100 = 100%) [%]	pIC50 (BT-474 cells)	pIC50 (AU-565 cells)	pIC50 (MCF-10A cells)	pIC50 (MDA-MB-231 cells)	hemolysis (in words) (red blood cells; three doses)	cell survival relative to untreated, single agent (MDA-MB-468 cells [2])
CC[C@H](C)[C@H](N)C(=O)N[C@@H](CCCCN)C(=O)N[C@@H](Cc1c[nH]c2ccccc12)C(=O)N[C@@H](CCCCN)C(=O)N[C@@H](CCCCN)C(=O)N[C@@H](CC(C)C)C(=O)N[C@@H](CC(C)C)C(=O)N[C@@H](CC(=O)O)C(=O)N[C@@H](C)C(=O)N[C@@H](C)C(=O)N[C@@H](CCCCN)C(=O)N[C@@H](CCC(N)=O)C(=O)N[C@H](C(=O)N[C@@H](CC(C)C)C(=O)NCC(=O)NCC(=O)N[C@@H](Cc1ccc(O)cc1)C(=O)N[C@@H](Cc1c[nH]cn1)C(=O)N[C@@H](Cc1c[nH]c2ccccc12)C(=O)N[C@@H](Cc1ccc(O)cc1)C(=O)NCC(=O)N[C@@H](Cc1ccc(O)cc1)C(=O)N[C@H](C(=O)N1CCC[C@H]1C(=O)N[C@@H](CCC(=O)O)C(=O)N[C@@H](CC(N)=O)C(=O)N[C@H](C(=O)N[C@H](C(=O)O)[C@@H](C)CC)C(C)C)[C@@H](C)O)[C@@H](C)CC [EGFR-D2K] (H-IKWKKLLDAAKQILGGYHWYGYTPENVI-OH)	4.30	4.56							
CC[C@H](C)[C@H](N)C(=O)N[C@@H](CCCCN)C(=O)N[C@@H](Cc1c[nH]c2ccccc12)C(=O)N[C@@H](CCCCN)C(=O)N[C@@H](CCCCN)C(=O)N[C@@H](CC(C)C)C(=O)N[C@@H](CC(C)C)C(=O)N[C@@H](CC(=O)O)C(=O)N[C@@H](C)C(=O)N[C@@H](C)C(=O)N[C@@H](CCCCN)C(=O)N[C@@H](CCC(N)=O)C(=O)N[C@H](C(=O)N[C@@H](CC(C)C)C(=O)NCC(=O)N1CCC[C@H]1C(=O)N[C@@H](CC(C)C)C(=O)NCC(=O)N[C@H](C(=O)N[C@@H](C)C(=O)NCC(=O)N[C@@H](CCC(N)=O)C(=O)N[C@@H](Cc1ccc(O)cc1)C(=O)N[C@@H](Cc1c[nH]cn1)C(=O)N[C@@H](Cc1c[nH]c2ccccc12)C(=O)N[C@@H](Cc1ccc(O)cc1)C(=O)NCC(=O)N[C@@H](Cc1ccc(O)cc1)C(=O)N[C@H](C(=O)N1CCC[C@H]1C(=O)N[C@@H](CCC(=O)O)C(=O)N[C@@H](CC(N)=O)C(=O)N[C@H](C(=O)N[C@H](C(=O)O)[C@@H](C)CC)C(C)C)[C@@H](C)O)[C@@H](C)CC)[C@@H](C)CC [EGFR-MMP-D2K] (H-IKWKKLLDAAKQILGPLGIAGQYHWYGYTPENVI-OH)	4.10	4.49	5.9						
CC[C@H](C)[C@H](N)C(=O)N[C@@H](CC(=O)O)C(=O)N[C@@H](Cc1c[nH]c2ccccc12)C(=O)N[C@@H](CCCCN)C(=O)N[C@@H](CCCCN)C(=O)N[C@@H](CC(C)C)C(=O)N[C@@H](CC(C)C)C(=O)N[C@@H](CC(=O)O)C(=O)N[C@@H](C)C(=O)N[C@@H](C)C(=O)N[C@@H](CCCCN)C(=O)N[C@@H](CCC(N)=O)C(=O)N[C@H](C(=O)N[C@@H](CC(C)C)C(=O)NCC(=O)NCC(=O)N[C@@H](Cc1ccc(O)cc1)C(=O)N[C@@H](Cc1c[nH]cn1)C(=O)N[C@@H](Cc1c[nH]c2ccccc12)C(=O)N[C@@H](Cc1ccc(O)cc1)C(=O)NCC(=O)N[C@@H](Cc1ccc(O)cc1)C(=O)N[C@H](C(=O)N1CCC[C@H]1C(=O)N[C@@H](CCC(=O)O)C(=O)N[C@@H](CC(N)=O)C(=O)N[C@H](C(=O)N[C@H](C(=O)O)[C@@H](C)CC)C(C)C)[C@@H](C)O)[C@@H](C)CC [EGFR-MP1] (H-IDWKKLLDAAKQILGGYHWYGYTPENVI-OH)	4.15	4.40		4.01	4.04	4.03	4.41		
CC[C@H](C)[C@H](N)C(=O)N[C@@H](CC(=O)O)C(=O)N[C@@H](Cc1c[nH]c2ccccc12)C(=O)N[C@@H](CCCCN)C(=O)N[C@@H](CCCCN)C(=O)N[C@@H](CC(C)C)C(=O)N[C@@H](CC(C)C)C(=O)N[C@@H](CC(=O)O)C(=O)N[C@@H](C)C(=O)N[C@@H](C)C(=O)N[C@@H](CCCCN)C(=O)N[C@@H](CCC(N)=O)C(=O)N[C@H](C(=O)N[C@@H](CC(C)C)C(=O)O)[C@@H](C)CC [MP1, reference compound] (H-IDWKKLLDAAKQIL-OH)	4.50	4.63		4.30	4.73	3.95	4.46	unacceptably high levels of hemolysis at all doses; also recorded: unacceptably high hemolytic activity	
[H]/N=C(\N/C(=N/[H])NCCCCCCNC(=N)NC(=N)Nc1ccc(Cl)cc1)Nc1ccc(Cl)cc1 [chlorhexidine dihydrochloride]									small and nonsignificant decrease
